From ChEMBL document CHEMBL1201862, “PubChem BioAssay data set” (2004)
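Assay format: 96-well plates, 48-hour exposure. GI50 is the concentration that inhibits growth by half.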 Calls of active or inactive are those of the source. No stated cut-off is given here; in the data, active = GI50 up to about 1.1 µM and inactive = higher.

Tests used:
Test in all cases: inhibition of tumour cell growth, NCI panel, 48 h
SK-OV-3 = tested on: SK-OV-3
786-0 = tested on: 786-0
NCI-H460 = tested on: NCI-H460
NCI-H23 = tested on: NCI-H23
MDA-MB-231 = tested on: MDA-MB-231
IGROV-1 = tested on: IGROV-1
Hs-578T = tested on: Hs-578T
CCRF-CEM = tested on: CCRF-CEM
U-251 = tested on: U-251
EKVX = tested on: EKVX
OVCAR-8 = tested on: OVCAR-8
SK-MEL-2 = tested on: SK-MEL-2
SN12C = tested on: SN12C
M14 = tested on: M14
ACHN = tested on: ACHN
MDA-MB-435 = tested on: MDA-MB-435
SNB-19 = tested on: SNB-19
COLO 205 = tested on: COLO 205
HOP-92 = tested on: HOP-92
SK-MEL-5 = tested on: SK-MEL-5
SNB-75 = tested on: SNB-75
SK-MEL-28 = tested on: SK-MEL-28
NCI-H522 = tested on: NCI-H522
NCI/ADR-RES = tested on: NCI/ADR-RES
HT-29 = tested on: HT-29
NCI-H226 = tested on: NCI-H226
UO-31 = tested on: UO-31
DU-145 = tested on: DU-145
CAKI-1 = tested on: CAKI-1
MOLT-4 = tested on: MOLT-4
SF-295 = tested on: SF-295
A549 = tested on: A549
SF-539 = tested on: SF-539
UACC-62 = tested on: UACC-62
BT-549 = tested on: BT-549
SF-268 = tested on: SF-268
HCT-15 = tested on: HCT-15
HOP-62 = tested on: HOP-62
OVCAR-4 = tested on: OVCAR-4
T47D = tested on: T47D
Malme-3M = tested on: Malme-3M
K562 = tested on: K562
TK-10 = tested on: TK-10
RXF 393 = tested on: RXF 393
KM12 = tested on: KM12
HCT-116 = tested on: HCT-116
OVCAR-3 = tested on: OVCAR-3
SW-620 = tested on: SW-620
UACC-257 = tested on: UACC-257
HL-60 = tested on: HL-60
LOX IMVI = tested on: LOX IMVI
PC-3 = tested on: PC-3
MDA-N = tested on: MDA-N
OVCAR-5 = tested on: OVCAR-5
A498 = tested on: A498
SR = tested on: SR
HCC 2998 = tested on: HCC 2998
MCF7 = tested on: MCF7
RPMI-8226 = tested on: RPMI-8226

Cc1c(S(=O)(=O)N/C(=N\O)Nc2ccc(Cl)cc2)sc2ccc(Cl)cc12
GI50 (SK-OV-3): 15.6 µM (inactive)
GI50 (786-0): 17.5 µM (inactive)
GI50 (NCI-H460): 24.8 µM (inactive)
GI50 (NCI-H23): 18 µM (inactive)
GI50 (MDA-MB-231): 20.1 µM (inactive)
GI50 (IGROV-1): 12.7 µM (inactive)
GI50 (Hs-578T): 18.8 µM (inactive)
GI50 (CCRF-CEM): 38.4 µM (inactive)
GI50 (U-251): 16.1 µM (inactive)
GI50 (EKVX): 12.3 µM (inactive)
GI50 (OVCAR-8): 17.3 µM (inactive)
GI50 (SK-MEL-2): 18.7 µM (inactive)
GI50 (SN12C): 20.3 µM (inactive)
GI50 (M14): 16.9 µM (inactive)
GI50 (ACHN): 15.2 µM (inactive)
GI50 (MDA-MB-435): 16.3 µM (inactive)
GI50 (SNB-19): 18.2 µM (inactive)
GI50 (COLO 205): 15.9 µM (inactive)
GI50 (HOP-92): 14.6 µM (inactive)
GI50 (SK-MEL-5): 14.1 µM (inactive)
GI50 (SNB-75): 18.7 µM (inactive)
GI50 (SK-MEL-28): 16.4 µM (inactive)
GI50 (NCI-H522): 9.91 µM (inactive)
GI50 (NCI/ADR-RES): 18 µM (inactive)
GI50 (HT-29): 19.3 µM (inactive)
GI50 (NCI-H226): 17.7 µM (inactive)
GI50 (UO-31): 35.8 µM (inactive)
GI50 (DU-145): 23.3 µM (inactive)
GI50 (CAKI-1): 17.5 µM (inactive)
GI50 (MOLT-4): 27.2 µM (inactive)
GI50 (SF-295): 17.6 µM (inactive)
GI50 (A549): 16.4 µM (inactive)
GI50 (SF-539): 21.5 µM (inactive)
GI50 (UACC-62): 16.1 µM (inactive)
GI50 (BT-549): 17.4 µM (inactive)
GI50 (SF-268): 18.1 µM (inactive)
GI50 (HCT-15): 16.6 µM
GI50 (HOP-62): 17.7 µM (inactive)
GI50 (OVCAR-4): 16.9 µM (inactive)
GI50 (T47D): 19 µM (inactive)
GI50 (Malme-3M): 18.5 µM (inactive)
GI50 (K562): 31 µM (inactive)
GI50 (TK-10): 16.9 µM (inactive)
GI50 (RXF 393): 22.3 µM (inactive)
GI50 (KM12): 18.4 µM (inactive)
GI50 (HCT-116): 13.9 µM (inactive)
GI50 (OVCAR-3): 11.3 µM (inactive)
GI50 (SW-620): 25.1 µM (inactive)
GI50 (UACC-257): 16.4 µM (inactive)
GI50 (HL-60): 19.3 µM (inactive)
GI50 (LOX IMVI): 17 µM (inactive)
GI50 (PC-3): 17.1 µM (inactive)
GI50 (MDA-N): 18.2 µM (inactive)
GI50 (OVCAR-5): 18.1 µM (inactive)

CCOC(=O)c1c2c(n(-c3ccc(C)cc3)c1C)-c1ccccc1C(=O)C2(C(=O)OCC)C(=O)OCC
GI50 (SK-OV-3): > 76.6 µM (inactive)
GI50 (786-0): 50.6 µM (inactive)
GI50 (NCI-H460): 35.5 µM (inactive)
GI50 (A498): 46.6 µM (inactive)
GI50 (NCI-H23): 57.5 µM (inactive)
GI50 (MDA-MB-231): 32.1 µM (inactive)
GI50 (IGROV-1): 30.3 µM (inactive)
GI50 (Hs-578T): 25.3 µM (inactive)
GI50 (CCRF-CEM): 29 µM (inactive)
GI50 (U-251): 70.1 µM (inactive)
GI50 (SR): 1.31 µM (inactive)
GI50 (EKVX): 32.4 µM (inactive)
GI50 (OVCAR-8): 29.2 µM (inactive)
GI50 (SK-MEL-2): 36.3 µM (inactive)
GI50 (SN12C): 34.4 µM (inactive)
GI50 (HCC 2998): 31.4 µM (inactive)
GI50 (M14): 60.3 µM (inactive)
GI50 (ACHN): 44.3 µM (inactive)
GI50 (MDA-MB-435): 29.1 µM (inactive)
GI50 (SNB-19): > 92.7 µM (inactive)
GI50 (COLO 205): 45.3 µM (inactive)
GI50 (HOP-92): 27.6 µM (inactive)
GI50 (SK-MEL-5): 19.2 µM (inactive)
GI50 (SNB-75): 28.6 µM (inactive)
GI50 (SK-MEL-28): 27.3 µM (inactive)
GI50 (NCI-H522): 25.1 µM (inactive)
GI50 (NCI/ADR-RES): 33.4 µM (inactive)
GI50 (HT-29): 27.3 µM (inactive)
GI50 (NCI-H226): 55 µM (inactive)
GI50 (UO-31): 23.1 µM (inactive)
GI50 (DU-145): 30.4 µM (inactive)
GI50 (CAKI-1): 39.9 µM (inactive)
GI50 (MOLT-4): 1.71 µM (inactive)
GI50 (SF-295): 37.9 µM (inactive)
GI50 (A549): 30.7 µM (inactive)
GI50 (SF-539): 35.8 µM (inactive)
GI50 (UACC-62): 27.3 µM (inactive)
GI50 (BT-549): 24.8 µM (inactive)
GI50 (SF-268): 34.3 µM (inactive)
GI50 (HCT-15): 36.1 µM
GI50 (HOP-62): 78.7 µM (inactive)
GI50 (MCF7): 25.9 µM (inactive)
GI50 (OVCAR-4): 30.8 µM (inactive)
GI50 (T47D): 20.7 µM (inactive)
GI50 (Malme-3M): 30.1 µM (inactive)
GI50 (K562): 14.5 µM (inactive)
GI50 (TK-10): 59.2 µM (inactive)
GI50 (RXF 393): 26.5 µM (inactive)
GI50 (KM12): 38.5 µM (inactive)
GI50 (HCT-116): 31.4 µM (inactive)
GI50 (OVCAR-3): 25.3 µM (inactive)
GI50 (SW-620): 37.1 µM (inactive)
GI50 (RPMI-8226): 14 µM (inactive)
GI50 (UACC-257): 33.8 µM (inactive)
GI50 (HL-60): 6.34 µM (inactive)
GI50 (LOX IMVI): 33.8 µM (inactive)
GI50 (PC-3): 33.7 µM (inactive)
GI50 (OVCAR-5): 74 µM (inactive)
